# Reference: patent US8338424B2, “Guanidine-containing compounds useful as muscarinic receptor antagonists” (Theravance, Inc., priority 2007, dated 2012)
# Experiments:
# rats (Sprague-Dawley) [1] = test: Rat Einthoven assay (bronchoprotection against MCh); type: in vivo; conditions: for ID50 (potency): 1.5 hrs post-dose
# Procedure: All test compounds are diluted in sterile water and are dosed via the inhalation route (IH). The rats (Sprague-Dawley, male, 250-350 g) are exposed to the aerosol generated from an LC Star Nebulizer Set and driven by a mixture of gases (5% CO2/95% atmospheric air). Each test compound solution is nebulized over a 10 minute time period in a pie shaped dosing chamber capable of holding six rats. At predetermined time points after inhalation of compound, the Einthoven assay is performed.
# Thirty minutes prior to the start of pulmonary evaluation, the animals are anesthetized with inactin (thiobutabarbital, 120 mg/kg IP). The jugular vein is catheterized with saline filled polyethylene catheters (PE-50) and used to infuse MCh. The trachea is then dissected and cannulated with a 14G needle and used for rat ventilation during pulmonary evaluation. Once surgery is complete, rats are ventilated using a piston respirator set at a stroke volume of 1 ml/100 g body weight but not exceeding 2.5 ml volume, and at a rate of 90 strokes per minute.
# The changes in pressure that occur with each breath are measured. Baseline values are collected for at least 2.5 minutes then rats are challenged non-cumulatively with 2-fold incremental increases of the bronchoconstrictor MCh (5, 10, 20, 40 and 80 μg/ml). The MCh is infused for 2.5 minutes from a syringe pump at a rate of 2 mL/kg/min. The animals are euthanized upon completion of the studies.
# Changes in ventilation pressure (cm H20) in treated animals are expressed as % inhibition of MCh response relative to control animals.
# Standard muscarinic antagonists were evaluated in the rat Einthoven assay 1.5 hrs post-dose.
# Standards tiotropium and ipratropium were also evaluated 24 hr and/or 6 hr post-dose in the rat Einthoven assay. […] The observed loss of activity at this time point (6 hr) is consistent with its relatively short duration of action in the clinic.
# rats (Sprague-Dawley) [2] = test: Rat antisialagogue assay (pilocarpine-induced salivation); type: in vivo; conditions: evaluated at 1, 6, and 24 hr post-dose
# Procedure: Rats (Sprague-Dawley, male, 250-350 g) are dosed, anesthetized and cannulated as described for Assay 3. At predetermined time points and after surgery, animals are placed on their dorsal side at a 20° incline with their head in a downward slope. A pre-weighed gauze pad is inserted in the animal's mouth and the muscarinic agonist pilocarpine (PILO) (3 mg/kg, iv.) is administered. Saliva produced during 10 minutes post-PILO is measured gravimetrically by determining the weight of the gauze pad before and after PILO. Antisialagogue effects are expressed as % inhibition of salivation relative to control animals.
# The rat antisialagogue assay was developed to assess systemic exposure and calculate the lung selectivity index (LSI) of test compounds. The standard, tiotropium, was evaluated in this model at 1, 6, and 24 hr post-dose. […] This finding is consistent with the peak effects observed in the Einthoven assay.
# This model is a modified version of the procedure described in Rechter, “Estimation of anticholinergic drug effects in mice by antagonism against pilocarpine-induced salivation” Ata Pharmacol Toxicol 24:243-254 (1996). The mean weight of saliva in vehicle-treated animals, at each pre-treatment time, is calculated and used to compute % inhibition of salivation, at the corresponding pre-treatment time, at each dose.
Structure (SMILES),"fold less potent 6-hr post-dose compared to 1.5 hr potency (rats (Sprague-Dawley) [1]; 6-hr post-dose, 10 and 30 μg/ml)",ID50 (potency) (rats (Sprague-Dawley) [1]; inhalation) [µg/mL],time post dose at which most potent at inhibiting pilocarpine-induced salivation (rats (Sprague-Dawley) [2]) [h],6 hr versus 24 hr potency values (rats (Sprague-Dawley) [1]; 6 hr and 24 hr post-dose),fold more potent at 6 hr and 24 hr compared to 1.5 hr potency (rats (Sprague-Dawley) [1]; 6 hr and 24 hr post-dose),time of peak bronchoprotection post-dose (rats (Sprague-Dawley) [1]; inhalation) [h]
CC(C)[N+]1(C)[C@@H]2CC[C@H]1C[C@@H](OC(=O)C(CO)c1ccccc1)C2 (some centres unmarked) [ipratropium],about 3 fold,4.4,–,–,–,–
C[N+]1(C)[C@@H]2C[C@@H](OC(=O)C(O)(c3cccs3)c3cccs3)C[C@H]1[C@@H]1O[C@@H]12 [tiotropium],–,6,6,not significantly different from each other,about 2 fold,6
C[N+]1(C)CCC(OC(=O)C(O)(c2ccccc2)C2CCCC2)C1 (centres unmarked) [glycopyrrolate],–,15,–,–,–,–
